Experimental data from patent publication US20250041380A1, “R[…] FOR SARS-COV2 DISEASE” (priority 2021, published 2025).
Read-outs that look alike come from different tables or passages of the source.

Legend:
Cathepsin L = biological target: T1, Cathepsin L (Homo sapiens, UniProt P07711); type: biochemical
T1 construct: purchased

DPP4 = biological target: T2, DPP4 (Homo sapiens, UniProt P27487); type: biochemical
T2 construct: purchased
T2 sequence (P27487 whole entry): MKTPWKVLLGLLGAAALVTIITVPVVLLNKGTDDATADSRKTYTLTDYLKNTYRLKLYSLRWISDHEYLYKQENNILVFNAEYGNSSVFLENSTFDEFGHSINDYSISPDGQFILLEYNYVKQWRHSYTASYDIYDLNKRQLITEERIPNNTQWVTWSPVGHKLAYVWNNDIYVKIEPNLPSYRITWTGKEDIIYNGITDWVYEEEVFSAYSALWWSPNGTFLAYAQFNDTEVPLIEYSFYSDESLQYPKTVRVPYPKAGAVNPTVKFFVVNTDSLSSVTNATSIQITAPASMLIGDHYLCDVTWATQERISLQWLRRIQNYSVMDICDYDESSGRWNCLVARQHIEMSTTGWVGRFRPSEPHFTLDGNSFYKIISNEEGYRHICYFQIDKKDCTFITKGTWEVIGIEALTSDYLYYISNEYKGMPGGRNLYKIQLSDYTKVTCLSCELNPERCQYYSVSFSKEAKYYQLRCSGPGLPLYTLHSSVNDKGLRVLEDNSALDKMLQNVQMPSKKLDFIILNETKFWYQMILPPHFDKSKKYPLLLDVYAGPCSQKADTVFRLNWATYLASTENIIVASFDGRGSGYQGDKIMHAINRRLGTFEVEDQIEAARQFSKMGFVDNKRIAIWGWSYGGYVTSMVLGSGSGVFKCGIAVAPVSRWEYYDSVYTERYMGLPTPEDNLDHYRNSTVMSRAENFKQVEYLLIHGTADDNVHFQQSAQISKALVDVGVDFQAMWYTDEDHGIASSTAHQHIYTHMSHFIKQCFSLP

T1 sequence (P07711 114-333): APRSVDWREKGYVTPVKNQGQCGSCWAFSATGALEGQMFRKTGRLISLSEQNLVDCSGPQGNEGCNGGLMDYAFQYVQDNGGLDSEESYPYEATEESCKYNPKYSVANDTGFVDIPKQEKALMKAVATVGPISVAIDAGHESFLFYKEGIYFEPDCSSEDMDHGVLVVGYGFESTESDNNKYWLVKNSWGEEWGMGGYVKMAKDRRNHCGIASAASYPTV

SMILES: CC(C)C[C@H](NC(=O)[C@H]1O[C@@H]1C(=O)O)C(=O)NCCCCN=C(N)N [E-64]
- % Inhibition wrt Enzyme Control (Cathepsin L; 0.0001 μM): 7.4%
- % Inhibition wrt Enzyme Control (Cathepsin L; 0.01 μM): 24.2%
- % Inhibition wrt Enzyme Control (Cathepsin L; 0.1 µM): 61.0%

SMILES: CC(C)C[C@H](NC(=O)OCc1ccccc1)C(=O)N[C@@H](C[C@@H]1CCNC1=O)C(O)S(=O)(=O)[O-].[Na+] (stereo partly shown) [GC376]
- % Inhibition wrt Enzyme Control (DPP4; 0.001 μM): 32.4%
- % Inhibition wrt Enzyme Control (DPP4; 0.01 μM): 76.2%
- % Inhibition wrt Enzyme Control (DPP4; 0.1 µM): 87.1%
- % Inhibition wrt Enzyme Control (DPP4; 1 µM): 99.5%
